Experimental data: the pKa sets of Baltruschat and Czodrowski (2020)

Conditions: basic group

SMILES	pKa
Clc1ccc(C/C(=C\CN2CCCC2)c2ccccc2)cc1	8.77
CC(C)/[NH+]=C/N(C)c1ccc(-c2c[nH]cn2)cc1	5.25
CCCNCC(=O)O	10
C[C@@H]1CCC[C@H](C)N1CC(C)(C)O	10.7
CC(O)CN(CC(C)O)C(C)(C)C (centres undefined)	9.36
OC(CN1CCCC1)CN1CCCC1	9.73
CCN(C)c1ccccc1	6.02
Clc1cnc2c(ccc3cccnc32)c1	3.99
COc1ccccc1/C(=N/CCC[NH+](C)C)c1ccccc1	4.62
O=C([O-])c1c2cccc1COCCOCc1ncc([nH]1)COCCOC2	7.05
Nc1ccc2cc3ccc4ccccc4c3nc2c1	6.72
CCN(CC)CCCN(CC)CC	10.2
CNCCc1ccccc1	10.2
CC1CN(C)CCN1C (centres undefined)	8.36
C=Cc1c(C)c2cc3nc(c(CC(=O)OC)c4[nH]c(cc5nc(cc1[nH]2)C(C)=C5CC)c(C)c4C(=O)NCC)[C@@H](CCC(=O)OC)[C@@H]3C	2.7
CCN(CC)CC(=O)Nc1ccccc1	8
CC(N)CCCc1ccccc1 (centres undefined)	9.99
Cc1cc(C(c2ccc(N)cc2)c2ccc(N)cc2)ccc1N	4.9
CC(C)NCCN	10.6
CN[C@H]1C(C)[C@@H]1[NH2+]C (some centres undefined)	5.68
Cc1ccc(-c2cnc(-c3ccc(Cl)cc3)o2)cc1	0.58
C#C[C@]1(O)C[C@@H](C)N[C@H]2CCCC[C@@H]21	9.29
CC(C)(C)N1C2CCCC21 (centres undefined)	9.22

SMILES	pKa
Cc1cc([O-])[nH+]cn1	2.15
Oc1cc2cccnc2c2cccnc12	3.9
Cc1ccc(/C(N)=N/O)cc1	5.14
C1CNCNC1	8.84
CN(C)c1ccccc1	5.1
CN(C)N(C)C	6.19
CCN(CC)CCSC	9.62
CON(C)C	3.65
NCC(=O)CN	8.32
CN(C)c1ncnc2c1ncn2[C@H]1O[C@@H](CO)[C@H](O)[C@@H]1O	3.65
NCCc1cnc[nH]1	9.4
Cn1c[nH+]c2cc(N)ccc21	3.09
CCN(CC)c1ccccc1C	7.18
CCN(CC)CCNc1nc(N)nc(C)c1C	9.7
CCN(CC)Cc1cn2nc(-c3ccccc3)cc(C)c2n1	8.79
Brc1cnc2c(ccc3cc(Br)cnc32)c1	3.9
C1CN=C2NCCC2C1 (centres undefined)	11.7
Cc1cc(C)c(CN)cc1N	9.77
CC1=CC(C)=Nc2ccc(C)cc2N1	3.5
Cc1ncc(CO)c(C)c1O	5.4
C[C@H]([C@H](O)c1ccccc1)N(C)C	10
CC(C)(C)SC(=N)c1ccccc1	9.24
CCCN(CCC)c1ccccc1	6.13

SMILES	pKa
COC(=O)c1ccc2ncccc2c1	3.8
CCCC(=O)OC(C)CN(C)C (centres undefined)	8.27
[O-][n+]1cccc2ccccc21	0.7
CSc1nc2ncncc2[nH]1	2.95
CCCCNN	7.82
C1CN2CCCN2C1	7.95
C[C@H]1C[NH2+][C@@H](C)CN1	5.23
[NH3+]CC(=O)N[C@@H](Cc1c[nH]cn1)C(=O)[O-]	6.77
O=P([O-])([O-])C(NCc1cccnc1)c1ccccc1[O-] (centres undefined)	12.2
C1CCC2NCCCC2C1 (centres undefined)	10.9
COc1ccc2c3c([nH]c2c1)C(C)=NCC3	9.72
OCCN1CC[NH+](CCCN2c3ccccc3Sc3ccc(Cl)cc32)CC1	3.59
Nc1ccccc1[N+](=O)[O-]	-0.24
NCCC(=O)NCCc1c[nH]cn1	9.21
CC(C)([NH3+])CN	6.79
CC(C)C(C(C)C)N(C)C	10.1
[O-]c1nccc2cccnc12	12
Cc1cc(-c2cc(C)[nH+][nH]2)[nH]n1	0.4
Cn1c(=O)c2[nH]cnc2n(C)c1=O	8.64
Nc1ccc(N)c(N)c1	6.1
Nc1ccc2c(c1)Cc1c(F)cccc1-2	3.54
COC(=O)c1ccc(N)cc1	2.44
NCc1ccc(F)c([O-])c1	10

SMILES	pKa
CNc1ccccc1C	4.59
O=Cc1cccnc1	3.73
CC(Cl)CN (centres undefined)	8.54
Nc1ccc2nnccc2c1	5.04
COc1cc2c(cc1O)CCN1Cc3c(ccc(OC)c3OC)C[C@@H]21	9.55
C1CCC(NC2CCCCO2)OC1 (centres undefined)	8.1
CN(CC[NH+](C)C)c1ccnc2cccc([N+](=O)[O-])c12	4.86
Cc1cc(C)nc(NS(=O)(=O)c2ccc([NH3+])cc2)n1	-0.89
C=CCNCC=C	9.35
CN(C)CCC/N=C(\c1ccccc1)c1ccccc1O	9.3
O=[N+]([O-])c1ccc(NCO)cc1	-0.33
CC(=O)OCCc1c[nH]cn1	6.97
Nc1ccc(Cc2ccc([NH3+])cc2)cc1	4
CC(C)N/C=[NH+]/c1ccc(-c2cn(C)cn2)cc1	5.39
Nc1ccc2ccccc2c1[N+](=O)[O-]	-0.92
COc1cccc(CN)c1OC	9.41
N[C@H]1CCC[C@H]1C(=O)Oc1ccc([N+](=O)[O-])cc1	8.36
NCC(=O)[O-]	9.65
CN(C)c1ncc2[nH]cnc2n1	4.02
CNOC	4.75
